Measured values published in PMC10097024, “Cytotoxic and Antibacterial Prenylated Acylphloroglucinols from Hypericum olympicum L” (Plants, 2023).
Values joined by “and” are separate entries in the source; they are usually repeats but may differ in a detail not shown here. Equal entries are not always repeated. Where two headings read alike, the source gives them in different places.

Experiments:
MRSA biofilm = test: Biofilm assay of MRSA; format: cell-based, Staphylococcus aureus; conditions: for Absorbance at 550 nm of the MRSA biofilm (crystal violet): replicate wells; for IC50: read-out: MBIC50 (median biofilm inhibitory concentration)
Excerpt: The Gram-positive bacterial strains that were examined for susceptibility were: Staphylococcus aureus (ATCC 29213, American Type Cell Culture Collection, Manassas, VA, USA), Staphylococcus aureus—MRSA (NBIMCC 8327-resistant to methicillin and oxacillin, National Bulgarian Collection for Industrial Microorganisms and Cell Cultures, Sofia, Bulgaria), Enterococcus faecalis (ATCC 29212) and Streptococcus pyogenes (SAIMC 10535, Collection of the Stephan Angeloff Institute of Microbiology, Sofia, Bulgaria). The only Gram-negative bacterial strain used was Escherichia coli (ATCC 35218). Bacteria were maintained in Trypticase Soy Broth (TSB, Himedia, India) at 37 °C, aerobic conditions. For the experiments brain heart infusion (BHI) broth (#M210 HiMedia, Mumbai, India) was used for E. faecalis and S. pyogenes and Mueller Hinton broth (MHB, #M0405B) from Thermo Scientific-Oxoid (Basingstoke, UK)—for all other strains.
The bacterial inoculum was prepared as described above for the BMD. […] After that an optimized protocol was applied for the visualization of the biofilm. Firstly, the supernatant was removed, and planktonic cells were removed by washing the wells carefully 3× with 200 μL/well PBS. Then, fixing of the remaining cells was performed by incubation with 200 μL/well methanol for 15 sec at room temperature. The methanol was removed and the plate was dried by air for 5–10 s. Next, 50 μL of 2% Hucker crystal violet was poured into the wells and excess stain was rinsed off by running tap water. After that, the cells were air dried and the biofilm formation in the wells was documented microscopically (40×, Inverted trinocular biological microscope model BIB-100 and digital camera B-CAM16, application software B-View, Boeco, Hamburg, Germany). Then the dye bound to biofilm in the wells was re-solubilized with 160 μL 33% acetic acid and the absorbance of each well was measured at 550 nm with lid (Table S1 in Supplementary Materials). […] MBIC were assessed visually and MBIC50 were calculated by GraphPad Prism software with a mathematical model for a dose–response relationship (variable slope) after normalization of the data and logarithmic transformation of the applied concentrations (X-data).

[1] = system: human tumor (MDA-MB-231, EJ, K-562, HL-60 and HL-60/DOX) cell lines; test: MTT cytotoxicity test, tumor cell line panel; format: cell-based
Excerpt: (§1) The group of human cell lines used in this study were represented by the tumor cell lines MDA-MB (breast carcinoma), EJ (urinary bladder carcinoma), K-562 (chronic myeloid leukemia), HL-60 (acute pre-myeloid leukemia), HL-60/DOX (multi-drug resistant HL-60 cell line, with over expression of MRP-1) and the non-tumorigenic cell lines HEK-293 (embryonic kidney cells) and EA.hy926 (vascular endothelial cells). EJ, HL60 and EA.hy926 were purchased from American Type Culture Collection (ATCC) (Manassas, Virginia). The other cell lines were purchased from the German Collection of Microorganisms and Cell Cultures (DSMZ GmbH, Braunschweig, Germany). HL-60/DOX cell lines were generated by periodically treating HL-60 cells with anthracyclins. The conditions in which the cell culture flasks were maintained were as follows: 37 °C in an incubator “BB 16-Function Line” Heraeus (Kendro, Hanau, Germany) with 5% CO2 humidified atmosphere. The growth medium was 90% RPMI-1640, supplemented with 10% FBS and 2 mM L-glutamine. MDA-MB-231, EJ, HEK-293 and EA.hy926 cells were maintained as adherent monolayer cultures while all the other (leukemic) cell lines were grown as suspension type cultures. Cells were maintained in log phase: the adherent cell lines were subjected to trypsinization 1–2 times a week and the leukemic cell lines were passaged 2–3 times a week by removing of part of the cellular suspension and substituting it with fresh medium.
(§2) The evaluation of cytotoxic activity was conducted by MTT test as described previously. The median inhibitory concentration (IC50) values which represent the half-maximal concentration values were calculated from sigmoidal concentration–response curves, using non-linear regression analysis (Curve fit, GraphPad Prizm 5.0 software, GraphPad Software Inc., San Diego, CA, USA). The selectivity index was calculated as the ratio of the IC50 of a non-cancerous line (HEK-293 or EA.hy926) and the average IC50 of all chemosensitive tested tumor cell lines (x). Therefore, SI=IC50HEK-293/IC50x . The resistance index (RI) was calculated as the ratio of IC50 of the multi-drug resistant HL-60/DOX cell line and the IC50 of its parent cell line: RI=IC50HL-60/DOX/IC50HL-60 .

HL-60/DOX = test: MTT cytotoxicity test; format: cell-based, human; conditions: 72 h exposure
Excerpt: as §1, §2

MDA-MB-231 = test: MTT cytotoxicity test; format: cell-based, human; conditions: MDA-MB-231, 72 h exposure
Excerpt: as §1, §2

EA.hy926 = test: MTT cytotoxicity test; format: cell-based, human
Excerpt: as §1, §2

HL-60 = test: MTT cytotoxicity test; format: cell-based, human; conditions: HL-60, 72 h exposure
Excerpt: as §1, §2

K-562 = test: MTT cytotoxicity test; format: cell-based, human
Excerpt: as §1, §2

EJ = test: MTT cytotoxicity test; format: cell-based, human; conditions: 72 h exposure
Excerpt: as §1, §2

HEK-293 = test: MTT cytotoxicity test; format: cell-based, human
Excerpt: as §1, §2

[2] = MRSA biofilm, assessed visually
[3] = Staphylococcus aureus, MRSA biofilm, interval in brackets
[4] = Homo sapiens, average IC50 of all chemo-sensitive tested tumor cell lines, read-out: x
[5] = Homo sapiens, EA.hy 926, EA.hy926, 72 h exposure
[6] = Homo sapiens, K562, K-562, 72 h exposure
[7] = Homo sapiens, HEK293, HEK-293, 72 h exposure
[8] = MRSA biofilm, interval in brackets

Row | Compound | Absorbance at 550 nm of the MRSA biofilm (crystal violet) (MRSA biofilm; 0.125 mg/L) | Absorbance at 550 nm of the MRSA biofilm (crystal violet) (MRSA biofilm; 0.25 mg/L) | Absorbance at 550 nm of the MRSA biofilm (crystal violet) (MRSA biofilm; 0.5 mg/L) | Absorbance at 550 nm of the MRSA biofilm (crystal violet) (MRSA biofilm; 1 mg/L) | MBIC (MRSA biofilm; MRSA biofilm) [mg/L] | MBIC (minimum biofilm inhibitory concentration) (MRSA biofilm; MRSA biofilm) [µM] | MBIC (minimum biofilm inhibitory concentration) (MRSA biofilm; [2]) [mg/L] | IC50 (MRSA biofilm; [3]) | IC50 [1, 4] [µM] | IC50 (HL-60/DOX; Homo sapiens) [µM] | IC50 (MDA-MB-231; Homo sapiens) [µM] | IC50 (EA.hy926; [5]) [µM] | IC50 (HL-60; Homo sapiens) [µM] | IC50 (K-562; [6]) [µM] | IC50 (EJ; Homo sapiens) [µM] | IC50 (HEK-293; [7]) [µM] | also measured
1 | CC(C)=CCC[C@]1(C)[C@@H](CC=C(C)C)C[C@]2(C)C(=O)C(CC=C(C)C)=C(O)[C@@]1(C(=O)C(C)C)C2=O [Compound 3, hyperpolyphyllirin/hyperibine J] | 0.347 and 0.336 | 0.376 and 0.403 | 0.276 and 0.394 | 0.249 and 0.184 | 4 | 8.29 | 4.0 | 0.17 µg/mL and 350 nM | 6.18 | 1.28 ± 0.2 | 2.63 ± 0.3 | 19.9 ± 3.1 | 10.9 ± 1.9 | 3.17 ± 0.3 | 8.02 ± 1.6 | 10.7 ± 2.1 | Absorbance at 550 nm of the MRSA biofilm (crystal violet) (MRSA biofilm; 2 mg/L): 0.353 and 0.444; Absorbance at 550 nm of the MRSA biofilm (crystal violet) (MRSA biofilm; 4 mg/L): 0.110 and 0.099
2 | CC(C)=CCC[C@]1(C)[C@@H](CC=C(C)C)C[C@H]2C(=O)[C@]1(C(=O)C(C)C)C(=O)C(CC=C(C)C)=C2O [Compound 5, (1S,5R,7S,8R)-4-hydroxy-1-isobutyryl-8-methyl-3,7-bis(3-methylbut-2-en-1-yl)-8-(4-methylpent-3-en-1-yl)bicyclo[3.3.1]non-3-ene-2,9-dione] | 0.926 and 0.790 | 0.592 and 0.502 | 0.534 and 0.342 | 0.332 and 0.406 | 0.5 | 1.07 | 0.5 | 0.05 µg/mL and 120 nM | 1.32 | 1.71 ± 0.2 | 1.31 ± 0.2 | 9.43 ± 2 | 1.16 ± 0.1 | 1.58 ± 0.1 | 1.21 ± 0.3 | 0.89 ± 0.1 | Absorbance at 550 nm of the MRSA biofilm (crystal violet) (MRSA biofilm; 0.063 mg/L): 0.978 and 1.044; IC50 ([1]; Homo sapiens, tumor cell lines, MTT assay, read-out: IC50 (range over the tumor cell lines)): 1.16 to 1.71 µM
3 | (1R,5R,7S,8R)-4-hydroxy-5,8-dimethyl-3,7-bis(3-methylbut-2-en-1-yl)-1-(2-methylbutanoyl)-8-(4-methylpent-3-en-1-yl)bicyclo[3.3.1]non-3-ene-2,9-dione [Compound 4] | – | – | – | – | – | 25.17 | 12.5 | – | – | – | – | – | – | – | – | – | Absorbance at 550 nm of the MRSA biofilm (crystal violet) (MRSA biofilm; 0.78 mg/L): 0.324 and 0.229 and 0.230; Absorbance at 550 nm of the MRSA biofilm (crystal violet) (MRSA biofilm; 1.56 mg/L): 0.248 and 0.194 and 0.193; Absorbance at 550 nm of the MRSA biofilm (crystal violet) (MRSA biofilm; 3.13 mg/L): 0.264 and 0,195 and 0,139; Absorbance at 550 nm of the MRSA biofilm (crystal violet) (MRSA biofilm; 6.25 mg/L): 0.184 and 0.121 and 0.092; Absorbance at 550 nm of the MRSA biofilm (crystal violet) (MRSA biofilm; 12.5 mg/L): 0.152 and 0.150 and 0.072; MBIC50 (median biofilm inhibitory concentration) (MRSA biofilm; [8]): 0.67 (0.39 to 1.17) mg/L; IC50 (MRSA biofilm; [8]): 1.35 µM; IC50 ([1]; average IC50 of all chemo-sensitive tested tumor cell lines, read-out: x): 15 µM; IC50 (HL-60/DOX): 12.2 ± 3.2 µM; IC50 (MDA-MB-231): 12.5 ± 2.1 µM; IC50 (EA.hy926; EA.hy926, 72 h exposure): 5.34 ± 1.9 µM; IC50 (HL-60): 22.2 ± 3.4 µM; IC50 (K-562; K-562, 72 h exposure): 17.2 ± 3 µM; IC50 (EJ): 8.06 ± 1.7 µM; IC50 (HEK-293; HEK-293, 72 h exposure): 35.8 ± 4.4 µM
